# Data: ChEMBL document CHEMBL1201862, “PubChem BioAssay data set” (2004)
# Where “and” joins values, the source holds several entries; their conditions need not be identical. Equal values may be shown once. Calls of active or inactive are those of the source.
# Legend:
# [1] = Luminescence Cell-Based Dose Retest to Confirm Inhibitors of Cancer Stem Cells. [Related pubchem assays (depositor defined):AID2717, AID2721]; type: functional; settings: Homo sapiens
# [2] = molecular target: T1, Heat shock 70 kDa protein 1A (Homo sapiens, UniProt P0DMV8); experiment: Hsp70 inhibitors, biochemical, TR-FRET (AID 786)
# [3] = molecular target: T1, Heat shock 70 kDa protein 1A; experiment: Hsp70 inhibitors, probe displacement, primary screen, biochemical, fluorescence polarization (AID 583)
# [4] = molecular target: Serine/threonine-protein phosphatase PP1-alpha catalytic subunit (Homo sapiens, UniProt P62136); experiment: PP1 phosphatase inhibitors, dose response, biochemical, fluorescence (AID 2403);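 further: phosphatase turnover of OMFP into fluorescent 3-O-methylfluorescein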
# [5] = molecular target: Serine/threonine-protein phosphatase (Homo sapiens, UniProt Q9BPW0); experiment: Counterscreen for inhibitors of PP1: fluorescence-based biochemical high throughput dose response assay to identify inhibitors of Protein Phosphatase 5 (PP5). [Related pubchem assays: 2034 (Summary (PP5 inhibitors)), 1987 (PP5 inhibitors in singlate), 2235 (PP1 inhibitors in singlate)]
# [6] = molecular target: Bcl-2-like protein 10 (Homo sapiens, UniProt Q9HD36); experiment: Biochemical TR3 FP assay of Bcl-B inhibitor potency, EC50 (AID 1243); type: functional
# [7] = inhibitors of firefly luciferase expression or activity, dose response, H4 neuroglioma cells, luminescence (AID 1990); type: functional, cell-based
# [8] = cytotoxicity toward NIH3T3 fibroblasts, dose response, counter-screen, cell-based, ATP luminescence, mouse fibroblasts (AID 2010); type: functional;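 further: cells exposed to compound for about 90 hours before reading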
# [9] = inhibitors of intracellular T. cruzi replication, confirmation, NIH3T3 host cells, beta-gal luminescence (AID 2044); type: functional, cell-based;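 further: intracellular parasites grown in NIH/3T3 mouse fibroblasts as host cells; luminescent beta-galactosidase reporter signal from transgenic T. cruzi replicating inside host cells; inhibitors lower the luminescence signal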
# [10] = inhibitors of SNCA 5'UTR-driven reporter translation, confirmation, H4 neuroglioma cells, luminescence (AID 1988); type: functional, cell-based
# [11] = molecular target: T2, Neuropeptide Y receptor type 2 (Homo sapiens, UniProt P49146); type: functional, cell-based;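 on IC50: HEK293 cells expressing the receptor and a CNG channel; stimulus was NPY near EC95 followed by isoproterenol to raise cAMP; antagonist potency measured as restoring cAMP signal that NPY suppresses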
# T2 sequence (P49146 whole entry): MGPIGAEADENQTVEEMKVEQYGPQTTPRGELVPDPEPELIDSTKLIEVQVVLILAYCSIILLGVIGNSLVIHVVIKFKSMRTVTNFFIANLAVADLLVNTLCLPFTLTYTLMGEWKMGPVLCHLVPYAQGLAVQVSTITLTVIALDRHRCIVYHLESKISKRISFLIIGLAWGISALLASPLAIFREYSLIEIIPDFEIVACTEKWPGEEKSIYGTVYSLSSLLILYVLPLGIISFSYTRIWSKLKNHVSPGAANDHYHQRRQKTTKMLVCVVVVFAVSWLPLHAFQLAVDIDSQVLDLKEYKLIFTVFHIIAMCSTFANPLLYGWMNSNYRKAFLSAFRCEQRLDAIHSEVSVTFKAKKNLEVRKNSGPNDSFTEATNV
# [12] = molecular target: T3, Neuropeptide Y receptor type 1 (Homo sapiens, UniProt P25929); type: functional;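 on IC50: HEK293 cells with a CNG channel challenged with NPY then isoproterenol; potency as antagonist that reverses NPY suppression of cAMP signal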
# T3 sequence (P25929 whole entry): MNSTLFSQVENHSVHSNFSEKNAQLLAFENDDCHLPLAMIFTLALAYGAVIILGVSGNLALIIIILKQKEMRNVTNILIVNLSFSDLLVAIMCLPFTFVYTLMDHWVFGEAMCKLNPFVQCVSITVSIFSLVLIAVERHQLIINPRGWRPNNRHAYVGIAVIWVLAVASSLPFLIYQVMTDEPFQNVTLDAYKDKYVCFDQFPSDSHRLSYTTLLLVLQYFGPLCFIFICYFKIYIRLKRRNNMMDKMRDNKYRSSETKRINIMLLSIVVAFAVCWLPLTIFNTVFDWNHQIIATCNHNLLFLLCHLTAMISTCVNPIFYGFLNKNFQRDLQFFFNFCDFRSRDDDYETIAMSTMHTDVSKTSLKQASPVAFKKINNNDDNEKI
# [13] = Luminescence Cell-Based Dose Response HTS to Identify Inhibitors of 5'UTR Stem-Loop Driven Prion Protein mRNA Translation in H4 Neuroglioblastoma Cells. [Related pubchem assays: 1827 (Project Summary), 1813 (Primary HTS)]; type: functional
# [14] = cytotoxicity in HEK-293T cells, dose response, cytotoxicity control for TCR NF-kB inhibitor project, luminescence, T-cell screen hits (AID 489026); type: functional, cell-based;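 further: cells exposed to compound about 14 hours before the viability readout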
# [15] = cells; type: functional, cell-based
# [16] = test system: BJ; experiment: cells; type: functional, cell-based; settings: Homo sapiens
# [17] = cytotoxicity toward DRD oncogenic fibroblasts, dose response, cell-based, non-viral oncogenic, luminescence (AID 1934); type: functional; settings: Homo sapiens
# [18] = test system: BJ; experiment: cytotoxicity toward BJ-TERT fibroblasts, dose response, cell-based, RAS-independent, luminescence (AID 1933); type: functional; settings: Homo sapiens
# [19] = luciferase reporter signal reduction – luminescence, H4-C neuroglioblastoma cells, dose response (AID 2458); type: functional, cell-based;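 further: H4 neuroglioblastoma cells stably carrying a luciferase reporter gene fusion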
# [20] = test system: BJ; experiment: cytotoxicity toward BJ-TERT-LT-ST fibroblasts, dose response, cell-based, RAS-independent, luminescence (AID 1935); type: functional; settings: Homo sapiens;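 further: BJ fibroblasts immortalized with TERT plus LT and ST oncogenes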
# [21] = HEp-2 cell cytotoxicity, dose response, cytotoxicity control for RSV inhibitor project, HTS (AID 2410); type: functional; settings: human respiratory syncytial virus
# [22] = inhibitors of SNCA 5'UTR-driven translation, confirmation, luminescence, H4 neuroglioblastoma cells, dose confirmation (AID 2454); type: functional, cell-based;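 further: H4 neuroglioblastoma cells carrying an alpha-synuclein 5'UTR luciferase reporter; potency for inhibition of the luciferase signal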
# [23] = molecular target: Luciferin 4-monooxygenase (Photinus pyralis, UniProt P08659); experiment: Counter Screen for Luciferase-based Assay Positives. [Related pubchem assays: 620, 618, 411 ]
# [24] = test system: HT-1080; experiment: cytotoxicity in HT1080 fibrosarcoma cells, cell-based, fluorescence readout (AID 620); type: functional; settings: Homo sapiens
# [25] = molecular target: E3 ubiquitin-protein ligase Mdm2 (Homo sapiens, UniProt Q00987); experiment: enhancers of MDM2-luciferase reporter signal, concentration-effect titration, project on inhibitors of MDM2 ubiquitin ligase, cellular assay, luminescent readout, 384-well plate format (AID 1394); type: functional;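 further: MDM2 E3 inhibitors raise luminescence so EC50 is for signal enhancement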
# [26] = test system: HEK293; experiment: Fluorescence-based counterscreen for potentiators or agonists of NPY-Y2: cell-based high-throughput dose response assay to identify inhibitors of cyclic nucleotide gated ion channel (CNGC) activity. In this assay, the parental HEK293 cell line transfected with a cyclic-nucleotide gated ion channel (CNGC)-based cAMP sensor is used to measure inhibition of isoproterenol-induced CNGC activity by test compound.; type: functional; settings: Homo sapiens
# [27] = molecular target: T2, Neuropeptide Y receptor type 2; experiment: Fluorescence-based cell-based high-throughput dose response assay for agonists of NPY-Y2. [Related pubchem assays: 1703 (Screening assay (CNGC inhibitors).), 1359 (Screening assay (NPY-Y2 potentiators or agonists).), 1304 (Screening assay (NPY-Y1 potentiators or agonists).), 1710 (Screening assay (NPY-Y2 agonists).), 1791 (Summary AID.)]; type: functional
# [28] = molecular target: T2, Neuropeptide Y receptor type 2; experiment: NPY-Y2 antagonist potency, selectivity check, dose response, counter-screen for NPY-Y1 antagonist project, cell-based (AID 1278); type: functional
# [29] = molecular target: T3, Neuropeptide Y receptor type 1; experiment: NPY-Y1 receptor antagonist potency, dose response, cell-based (AID 1277); type: functional
# [30] = molecular target: T4, Heat shock factor protein 1 (Mus musculus, UniProt P38532); experiment: HSF1 potentiators in luciferase reporter cells, confirmation, cell-based, NIH3T3, luminescence, dose retest (AID 435004); type: functional;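 further: stress induced by proteasome inhibitor MG132 added 30 min after compound; luciferase reporter driven by HSF1 response element in NIH3T3 cells; actives raise luminescence as potentiators of the MG132 stress response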
# T4 sequence (P38532 whole entry): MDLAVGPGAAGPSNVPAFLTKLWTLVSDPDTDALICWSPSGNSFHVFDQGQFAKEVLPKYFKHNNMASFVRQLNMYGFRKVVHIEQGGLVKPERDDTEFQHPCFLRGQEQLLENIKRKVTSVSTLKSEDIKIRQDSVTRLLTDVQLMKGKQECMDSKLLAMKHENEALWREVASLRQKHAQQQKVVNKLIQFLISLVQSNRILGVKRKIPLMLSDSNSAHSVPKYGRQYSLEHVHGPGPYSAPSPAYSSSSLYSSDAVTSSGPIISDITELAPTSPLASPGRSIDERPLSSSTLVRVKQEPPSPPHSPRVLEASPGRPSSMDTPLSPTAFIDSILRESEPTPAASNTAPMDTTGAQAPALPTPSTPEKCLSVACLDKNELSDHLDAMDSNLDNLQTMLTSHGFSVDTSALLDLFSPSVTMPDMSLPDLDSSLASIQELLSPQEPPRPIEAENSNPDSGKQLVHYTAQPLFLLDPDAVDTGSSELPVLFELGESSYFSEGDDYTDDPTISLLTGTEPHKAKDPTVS
# [31] = test system: HEK293; experiment: cells; settings: Homo sapiens
# [32] = control 3'UTR Renilla luciferase suppression, dose response, counter-screen for Shn3 inhibitor project, cell-based, Clone20-Shn3RL, cherry-picked (AID 624133); type: functional
# [33] = molecular target: T3, Neuropeptide Y receptor type 1; experiment: Fluorescence-based counterscreen for agonists of NPY-Y2: cell-based high-throughput dose response assay for agonists of NPY-Y1.; type: functional
# [34] = test system: HEK293; experiment: cells; settings: Homo sapiens; remark: listed apart in the source
# [35] = HepG2 cell cytotoxicity, dose response, cytotoxicity control for Shn3 inhibitor project, CellTiter-Glo, cherry-picked (AID 624134); type: functional, cell-based
# [36] = Shn3 3'UTR reporter inhibitors, dose response, cell-based, Clone20 osteoblasts, firefly luciferase, cherry-picked (AID 624132); type: functional;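 further: firefly luciferase luminescence from reporter carrying the Shn3 3'UTR in osteoblasts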
# [37] = molecular target: G2/mitotic-specific cyclin-B1 (Homo sapiens, UniProt P14635); experiment: Counterscreen assay for inhibitors of Wee1 degradation: dose response cell-based assay to identify inhibitors of cyclin B degradation. [Related pubchem assays: 1410, 1321 ]; type: functional
# [38] = test system: BJ; experiment: cytotoxicity toward Ras-transformed BJeLR fibroblasts, dose response, cell-based, alamar blue fluorescence, cherrypicked samples (AID 2631); type: functional; settings: Homo sapiens;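 further: confirmatory dose-response assay in RAS-dependent BJ fibroblasts engineered with TERT, LT and ST, with cytotoxicity read by fluorescence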
# [39] = molecular target: T5, Voltage-gated N-type calcium channel alpha-1B subunit/Amyloid beta A4 precursor protein-binding family A member 1 (Homo sapiens, UniProt Q00975+Q02410); type: protein assay
# [40] = Luminescence-based counterscreen assay for KLF5 inhibitors: dose response cell-based high throughput screening assay to identify cytotoxic compounds using the IEC-6 intestinal epithelial cell line. [Related pubchem assays: 1700 (Primary screen.), 1834 (Confirmation screen.), 1858 (Summary AID.), 1905 (Counterscreen.)]; type: functional
# [41] = molecular target: Wee1-like protein kinase (Homo sapiens, UniProt P30291); experiment: Dose Response Cell-based Assay for Inhibitors of Wee1 Degradation. [Related pubchem assays: 1410, 1321 ]; type: functional
# [42] = molecular target: T5, Voltage-gated N-type calcium channel alpha-1B subunit/Amyloid beta A4 precursor protein-binding family A member 1; type: protein assay; remark: listed apart in the source
# [43] = molecular target: Cytochrome P450 2D6 (Homo sapiens, UniProt P10635); experiment: qHTS Assay for Inhibitors and Substrates of Cytochrome P450 2D6. [Related pubchem assays: 410 ]; type: ADME; settings: read-out: Potency
# [44] = molecular target: Cytochrome P450 3A4 (Homo sapiens, UniProt P08684); settings: Potency;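 further: confirmatory qHTS run detecting inhibitors and substrates of CYP3A4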
# Chain of Cytochrome P450 3A4 (P08684 whole entry): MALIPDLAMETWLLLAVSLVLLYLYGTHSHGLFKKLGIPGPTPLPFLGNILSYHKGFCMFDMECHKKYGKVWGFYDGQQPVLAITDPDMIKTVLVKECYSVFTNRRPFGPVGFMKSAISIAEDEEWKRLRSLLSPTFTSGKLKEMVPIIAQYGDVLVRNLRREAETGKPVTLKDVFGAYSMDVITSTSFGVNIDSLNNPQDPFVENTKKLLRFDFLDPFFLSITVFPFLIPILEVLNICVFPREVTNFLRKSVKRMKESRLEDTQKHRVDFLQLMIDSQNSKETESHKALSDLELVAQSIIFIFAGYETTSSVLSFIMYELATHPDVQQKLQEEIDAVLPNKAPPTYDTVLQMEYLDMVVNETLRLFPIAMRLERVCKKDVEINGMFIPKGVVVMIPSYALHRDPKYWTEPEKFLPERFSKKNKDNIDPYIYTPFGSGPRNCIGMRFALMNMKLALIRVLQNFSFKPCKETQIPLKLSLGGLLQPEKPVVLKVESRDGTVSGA
# T1 sequence (P0DMV8 whole entry): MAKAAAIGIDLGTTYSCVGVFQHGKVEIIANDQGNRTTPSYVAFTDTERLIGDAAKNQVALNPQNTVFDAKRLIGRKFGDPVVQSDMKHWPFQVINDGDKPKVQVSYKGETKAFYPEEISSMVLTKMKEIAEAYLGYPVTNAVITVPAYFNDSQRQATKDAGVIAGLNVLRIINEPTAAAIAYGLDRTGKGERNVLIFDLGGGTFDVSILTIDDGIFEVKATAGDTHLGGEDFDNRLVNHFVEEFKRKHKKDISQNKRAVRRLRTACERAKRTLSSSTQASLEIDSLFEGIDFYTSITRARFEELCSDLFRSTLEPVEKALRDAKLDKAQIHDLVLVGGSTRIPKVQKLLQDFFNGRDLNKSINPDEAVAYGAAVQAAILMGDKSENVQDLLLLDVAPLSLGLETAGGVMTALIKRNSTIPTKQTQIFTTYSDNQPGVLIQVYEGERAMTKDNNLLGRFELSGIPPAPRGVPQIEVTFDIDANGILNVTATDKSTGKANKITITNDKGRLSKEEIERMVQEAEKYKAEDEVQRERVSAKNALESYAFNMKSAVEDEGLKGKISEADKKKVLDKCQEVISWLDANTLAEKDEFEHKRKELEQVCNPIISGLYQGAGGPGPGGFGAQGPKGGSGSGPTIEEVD
# T5 sequence (Q00975 whole entry): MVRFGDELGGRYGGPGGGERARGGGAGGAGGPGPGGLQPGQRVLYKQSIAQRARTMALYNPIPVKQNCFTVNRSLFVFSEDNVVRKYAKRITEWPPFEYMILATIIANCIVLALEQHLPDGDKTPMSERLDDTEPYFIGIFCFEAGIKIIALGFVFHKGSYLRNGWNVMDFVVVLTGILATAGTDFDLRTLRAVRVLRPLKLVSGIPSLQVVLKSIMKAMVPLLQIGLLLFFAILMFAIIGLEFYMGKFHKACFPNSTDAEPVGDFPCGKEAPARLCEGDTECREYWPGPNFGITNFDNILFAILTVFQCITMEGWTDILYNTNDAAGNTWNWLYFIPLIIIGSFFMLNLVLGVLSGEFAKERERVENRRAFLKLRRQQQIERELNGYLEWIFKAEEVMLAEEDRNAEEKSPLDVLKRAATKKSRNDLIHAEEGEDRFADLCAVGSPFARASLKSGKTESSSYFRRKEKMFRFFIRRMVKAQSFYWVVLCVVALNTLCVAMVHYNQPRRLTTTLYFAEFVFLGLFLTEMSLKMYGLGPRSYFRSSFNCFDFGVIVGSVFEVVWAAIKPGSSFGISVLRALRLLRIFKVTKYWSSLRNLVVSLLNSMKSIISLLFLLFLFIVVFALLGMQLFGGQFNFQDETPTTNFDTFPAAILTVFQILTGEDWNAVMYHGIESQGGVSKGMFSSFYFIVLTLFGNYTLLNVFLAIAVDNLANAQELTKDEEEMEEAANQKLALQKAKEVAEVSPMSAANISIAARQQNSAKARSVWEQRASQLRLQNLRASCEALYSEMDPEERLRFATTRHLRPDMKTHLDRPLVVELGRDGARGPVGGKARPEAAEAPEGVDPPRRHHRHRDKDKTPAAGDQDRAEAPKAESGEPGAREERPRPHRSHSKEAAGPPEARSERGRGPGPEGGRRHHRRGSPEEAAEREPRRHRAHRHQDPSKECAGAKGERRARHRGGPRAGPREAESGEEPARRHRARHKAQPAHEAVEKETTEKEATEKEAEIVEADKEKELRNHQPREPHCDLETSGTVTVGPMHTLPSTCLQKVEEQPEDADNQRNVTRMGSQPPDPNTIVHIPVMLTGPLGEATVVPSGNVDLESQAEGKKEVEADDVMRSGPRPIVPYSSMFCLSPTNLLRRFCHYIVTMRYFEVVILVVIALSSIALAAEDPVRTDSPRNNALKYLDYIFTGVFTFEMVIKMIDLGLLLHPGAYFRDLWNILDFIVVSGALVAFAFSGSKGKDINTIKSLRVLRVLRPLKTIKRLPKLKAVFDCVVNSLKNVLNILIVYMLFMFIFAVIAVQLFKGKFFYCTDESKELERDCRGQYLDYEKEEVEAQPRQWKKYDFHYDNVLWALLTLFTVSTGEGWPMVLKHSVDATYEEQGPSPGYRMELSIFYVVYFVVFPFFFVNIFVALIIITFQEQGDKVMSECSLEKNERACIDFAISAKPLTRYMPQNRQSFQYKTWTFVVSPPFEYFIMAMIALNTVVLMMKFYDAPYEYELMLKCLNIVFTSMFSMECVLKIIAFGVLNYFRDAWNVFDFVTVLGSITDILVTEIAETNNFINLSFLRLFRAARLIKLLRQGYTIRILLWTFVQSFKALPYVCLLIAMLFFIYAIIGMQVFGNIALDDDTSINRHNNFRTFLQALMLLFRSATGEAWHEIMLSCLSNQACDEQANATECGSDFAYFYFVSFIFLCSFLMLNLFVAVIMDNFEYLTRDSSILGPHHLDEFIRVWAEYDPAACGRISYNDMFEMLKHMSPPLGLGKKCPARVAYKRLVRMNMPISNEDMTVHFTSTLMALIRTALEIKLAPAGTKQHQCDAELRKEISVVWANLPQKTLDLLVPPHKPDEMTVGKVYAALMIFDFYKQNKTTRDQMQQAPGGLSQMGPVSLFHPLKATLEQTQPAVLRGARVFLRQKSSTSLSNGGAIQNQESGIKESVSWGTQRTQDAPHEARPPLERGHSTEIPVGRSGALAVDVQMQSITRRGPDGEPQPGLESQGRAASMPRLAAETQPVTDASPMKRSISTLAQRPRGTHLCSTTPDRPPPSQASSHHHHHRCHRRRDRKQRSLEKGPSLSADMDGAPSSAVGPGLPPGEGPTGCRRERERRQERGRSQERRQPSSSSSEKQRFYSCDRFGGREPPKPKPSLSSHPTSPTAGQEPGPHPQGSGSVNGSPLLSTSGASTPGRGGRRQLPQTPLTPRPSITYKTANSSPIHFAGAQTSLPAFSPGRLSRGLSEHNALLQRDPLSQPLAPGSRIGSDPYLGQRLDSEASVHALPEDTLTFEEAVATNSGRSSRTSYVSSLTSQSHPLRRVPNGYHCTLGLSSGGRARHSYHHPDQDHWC
# T5 sequence (Q02410 whole entry): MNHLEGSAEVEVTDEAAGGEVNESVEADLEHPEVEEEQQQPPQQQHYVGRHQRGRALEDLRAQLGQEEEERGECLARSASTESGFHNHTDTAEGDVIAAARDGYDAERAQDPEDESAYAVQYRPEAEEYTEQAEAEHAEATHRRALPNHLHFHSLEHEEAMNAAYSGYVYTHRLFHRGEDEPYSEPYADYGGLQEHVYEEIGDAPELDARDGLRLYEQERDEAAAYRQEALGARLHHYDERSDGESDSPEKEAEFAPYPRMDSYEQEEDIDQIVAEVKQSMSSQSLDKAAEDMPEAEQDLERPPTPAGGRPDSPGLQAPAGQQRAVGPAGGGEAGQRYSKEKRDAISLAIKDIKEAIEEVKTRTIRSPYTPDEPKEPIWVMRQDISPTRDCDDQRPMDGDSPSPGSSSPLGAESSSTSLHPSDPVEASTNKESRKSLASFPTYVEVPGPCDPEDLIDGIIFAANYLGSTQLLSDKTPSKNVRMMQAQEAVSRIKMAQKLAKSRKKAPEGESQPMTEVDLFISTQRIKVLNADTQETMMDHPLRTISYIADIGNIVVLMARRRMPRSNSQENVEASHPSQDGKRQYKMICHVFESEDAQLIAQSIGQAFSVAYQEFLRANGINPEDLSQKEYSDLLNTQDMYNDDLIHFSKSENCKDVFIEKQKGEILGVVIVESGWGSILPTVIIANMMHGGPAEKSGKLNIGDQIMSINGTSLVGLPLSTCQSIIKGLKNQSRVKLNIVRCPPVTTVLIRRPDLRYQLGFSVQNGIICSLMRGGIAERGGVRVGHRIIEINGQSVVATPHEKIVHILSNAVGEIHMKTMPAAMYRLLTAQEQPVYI
# Chain of Serine/threonine-protein phosphatase PP1-alpha catalytic subunit (P62136 whole entry): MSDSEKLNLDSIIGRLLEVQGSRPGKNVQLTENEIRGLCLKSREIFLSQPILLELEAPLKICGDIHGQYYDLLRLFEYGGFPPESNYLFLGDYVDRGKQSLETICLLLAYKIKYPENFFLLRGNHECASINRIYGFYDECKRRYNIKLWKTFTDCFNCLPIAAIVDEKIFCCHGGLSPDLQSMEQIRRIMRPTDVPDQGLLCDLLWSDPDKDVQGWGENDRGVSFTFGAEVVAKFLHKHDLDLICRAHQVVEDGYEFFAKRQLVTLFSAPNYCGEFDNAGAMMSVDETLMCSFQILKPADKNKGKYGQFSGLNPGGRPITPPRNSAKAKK
# Chain of G2/mitotic-specific cyclin-B1 (P14635 whole entry): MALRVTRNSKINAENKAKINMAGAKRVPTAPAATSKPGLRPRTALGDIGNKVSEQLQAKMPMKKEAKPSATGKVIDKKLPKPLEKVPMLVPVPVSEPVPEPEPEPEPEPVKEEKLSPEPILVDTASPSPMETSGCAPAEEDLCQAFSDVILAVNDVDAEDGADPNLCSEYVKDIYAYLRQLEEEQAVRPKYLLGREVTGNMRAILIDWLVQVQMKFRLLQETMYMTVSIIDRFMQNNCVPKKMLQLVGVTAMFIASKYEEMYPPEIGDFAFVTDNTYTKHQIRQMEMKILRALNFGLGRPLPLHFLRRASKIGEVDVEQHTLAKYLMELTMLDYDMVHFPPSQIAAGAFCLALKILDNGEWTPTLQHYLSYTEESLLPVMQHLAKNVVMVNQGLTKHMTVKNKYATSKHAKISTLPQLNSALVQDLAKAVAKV
smiles,measurement,setting,value
CCCc1cc(SCC(=O)Nc2c(C)n(C)n(-c3ccccc3)c2=O)n2c(nc3ccccc32)c1C#N,AC50,[1],> 195 µM (inactive)
same,IC50,[2],> 100 µM (not active)
same,IC50,[3],> 100 µM (not active)
O=C(O)c1cc(-c2ccc(Cl)cc2)n(-c2cccc(Cl)c2)n1,IC50,[4],8.1 µM (active)
same,IC50,[5],> 67 µM (not active)
C=CCN1C(=O)/C(=C\c2cccn2-c2cccc([N+](=O)[O-])c2)C(=O)NC1=S,EC50,[6],5.36 µM (active)
CCOc1ccc(-n2cc(C(=O)Nc3cccc(Cl)c3)c3cc(OC)c(OC)cc3c2=O)cc1,EC50,[7],21.5 µM (active)
same,EC50,[8],> 60 µM (not active)
same,EC50,[9],3.7 µM (active)
same,EC50,[10],> 120 µM (not active)
same,IC50,[11],> 35 µM (not active)
same,IC50,[12],> 35 µM (not active)
same,EC50,[13],> 120 µM (not active)
CC(=O)c1sc2c(c1OC(=O)c1ccc(Cl)cc1Cl)c(=O)n(-c1ccccc1)c(=S)n2-c1ccccc1,EC50,[7],0.134 µM (active)
same,IC50,[14],> 80 µM (inactive)
same,EC50,[10],< 0.1 µM (active)
same,EC50,[15],0.444 µM (active)
same,EC50,[16],104 µM (active)
same,EC50,[17],0.36 µM (inconclusive)
same,EC50,[18],0.201 µM (active)
same,EC50,[13],< 0.1 µM (active)
same,EC50,[19],0.578 µM (active)
same,EC50,[20],6.47 µM (inconclusive)
same,CC50,[21],1.59 µM (active)
same,EC50,[22],0.716 µM (active)
O=c1/c(=C/c2ccccn2)sc2nc3ccccc3n12,EC50,[23],< 0.2 µM (active)
same,EC50,[24],> 50 µM (not active)
C/C1=C\[C@@H](C)C/C=C/[C@H]2[C@@H]3O[C@]3(C)[C@@H](C)[C@H]3[C@H](Cc4c[nH]c5ccccc45)NC(=O)[C@]32C(=O)/C=C/C(=O)[C@@H]1O,EC50,[25],12 µM (not active)
same,EC50,[26],> 35.4 µM (not active)
same,EC50,[27],> 35.4 µM (not active)
same,IC50,[28],4.76 µM (active)
same,IC50,[29],10.6 µM (not active)
same,EC50,[30],6.24 µM (inconclusive)
same,EC50,[16],6.74 µM (inconclusive)
same,EC50,[17],5.67 µM (active)
same,EC50,[18],3.85 µM (inconclusive)
same,EC50,[31],> 59.6 µM (inactive)
same,AC50,[32],5.25 µM (active)
same,EC50,[33],> 35.4 µM (not active)
same,EC50,[34],> 59.6 µM (inactive)
same,AC50,[35],24.2 µM (active)
same,EC50,[20],10.7 µM (inconclusive)
same,AC50,[36],6.44 µM (active)
Cc1nc2ccccn2c1-c1csc(Nc2cccc(O)c2)n1,EC50,[37],> 49.7 µM (not active)
same,EC50,[38],0.205 µM (active)
same,IC50,[39],> 50 µM (inactive)
same,IC50,[40],> 13.3 µM (not active)
same,EC50,[16],82.4 µM (inconclusive)
same,EC50,[17],1.96 µM (active)
same,EC50,[18],7.42 µM (active)
same,EC50,[41],> 49.7 µM (not active)
same,IC50,[42],10 µM (active)
same,EC50,[20],1.55 µM (inconclusive)
Cc1cccc(C#Cc2ccccc2)n1,AC50,[43],39.8 µM (inconclusive)
same,AC50,[44],20 µM (inconclusive) and 1.26 µM (inconclusive)
